In ChEMBL document CHEMBL1641590, “Identification of novel ASK1 inhibitors using virtual screening” (Bioorg Med Chem, 2011):

The molecules below were run against T1, Mitogen-activated protein kinase kinase kinase 5 (Homo sapiens, UniProt Q99683) (assay: Inhibition of ASK1 assessed as phosphorylated fluorescent peptide by mobility shift assay).
T1 sequence (Q99683 whole entry): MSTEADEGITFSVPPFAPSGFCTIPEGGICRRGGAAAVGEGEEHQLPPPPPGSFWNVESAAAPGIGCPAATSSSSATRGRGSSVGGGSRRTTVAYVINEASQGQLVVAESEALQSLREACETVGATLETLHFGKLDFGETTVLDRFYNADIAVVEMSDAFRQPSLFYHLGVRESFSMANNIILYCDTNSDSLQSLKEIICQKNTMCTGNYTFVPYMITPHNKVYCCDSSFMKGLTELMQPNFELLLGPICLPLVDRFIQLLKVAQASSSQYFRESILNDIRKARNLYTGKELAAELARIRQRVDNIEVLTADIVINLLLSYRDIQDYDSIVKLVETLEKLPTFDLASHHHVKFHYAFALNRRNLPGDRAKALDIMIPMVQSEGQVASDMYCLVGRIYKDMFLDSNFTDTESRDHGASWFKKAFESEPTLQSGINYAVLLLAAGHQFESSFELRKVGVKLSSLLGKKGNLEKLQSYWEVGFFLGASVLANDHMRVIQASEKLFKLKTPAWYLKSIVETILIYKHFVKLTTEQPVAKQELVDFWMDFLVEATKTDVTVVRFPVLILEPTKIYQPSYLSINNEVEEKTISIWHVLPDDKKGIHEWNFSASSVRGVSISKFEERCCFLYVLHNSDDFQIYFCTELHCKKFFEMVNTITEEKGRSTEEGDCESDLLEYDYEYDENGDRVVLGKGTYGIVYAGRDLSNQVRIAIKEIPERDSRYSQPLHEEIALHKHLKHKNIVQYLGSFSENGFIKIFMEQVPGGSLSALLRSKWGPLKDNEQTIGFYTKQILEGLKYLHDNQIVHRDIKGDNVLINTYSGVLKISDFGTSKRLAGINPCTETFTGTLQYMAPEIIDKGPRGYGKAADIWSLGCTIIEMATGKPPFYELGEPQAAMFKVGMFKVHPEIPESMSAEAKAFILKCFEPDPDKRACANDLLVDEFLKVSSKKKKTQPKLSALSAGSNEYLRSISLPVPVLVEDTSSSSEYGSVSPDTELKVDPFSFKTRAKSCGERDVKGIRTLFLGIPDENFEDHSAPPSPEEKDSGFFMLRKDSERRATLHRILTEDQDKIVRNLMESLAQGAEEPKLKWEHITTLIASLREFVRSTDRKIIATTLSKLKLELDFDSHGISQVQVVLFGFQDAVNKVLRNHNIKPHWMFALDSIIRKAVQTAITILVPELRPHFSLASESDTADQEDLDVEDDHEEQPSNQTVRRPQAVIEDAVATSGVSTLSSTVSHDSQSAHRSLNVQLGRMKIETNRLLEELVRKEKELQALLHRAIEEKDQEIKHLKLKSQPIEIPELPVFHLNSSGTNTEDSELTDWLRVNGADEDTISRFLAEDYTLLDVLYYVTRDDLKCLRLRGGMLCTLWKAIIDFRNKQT

SMILES	IC50
CCCN(CCC)c1[nH]cnc2ncnc1-2	25.8 µM
CC(C)(C(=O)O)c1ccc(C(=O)Nc2cn3cc(-c4ccsc4)ccc3n2)cc1	0.019 µM
CC(C)(C)c1ccc(C(=O)Nc2cn3cc(-n4ccnc4)ccc3n2)cc1	0.014 µM
COc1ccc(OC)c(Nc2nc(N)nc3[nH]cnc23)c1	18.9 µM
c1nc(N2CCCCC2)c2nc[nH]c2n1	17 µM
CC(C)(C)c1ccc(C(=O)Nc2cn3c(ccc4ccccc43)n2)cc1	0.015 µM
CSc1nc(N)nc2[nH]cnc12	13.3 µM

What follows are molecules tested against T2, Mitogen-activated protein kinase kinase kinase 5 (Homo sapiens) (UniProt Q99683) (assay: Inhibition of ASK1 assessed as phosphorylated fluorescent peptide at 10 uM by mobility shift assay).
T2 sequence (whole entry): T1 sequence (Q99683 whole entry)

SMILES	inhibition
Nc1nc(Nc2cccc3ccccc23)c2nc[nH]c2n1	> 30%
CN(C)c1ncnc2nc[nH]c12	> 30%
CCCN(CCC)c1[nH]cnc2ncnc1-2	> 50%
Nc1nc(SCc2c(Cl)cccc2Cl)c2nc[nH]c2n1	> 30%
Nc1nc(N)c2c(Cl)c(Br)ccc2n1	> 30%
CCNc1nc(N)c(C(C)=O)s1	> 30%
CNc1nc(-c2cccnc2)cn2ccnc12	> 30%
O=C(Nc1nc2ccccc2[nH]1)c1ccc2ncsc2c1	> 30%
COc1cccc(C(=O)NN2CC(=O)C(c3nc4ccccc4c(=O)[nH]3)=C2N)c1	> 30%
Cc1c(C)n(C2CCCC2)c2nc[nH]c(=O)c12	> 30%
NC(=O)c1ccc(-n2cnc3ccccc32)cc1	> 30%
CS(=O)(=O)c1ccc(C(=O)Nc2nc3ccccc3[nH]2)cc1[N+](=O)[O-]	> 30%
Nc1nc(SCCCCC(O)O)c2nc[nH]c2n1	> 30%
Nc1nc(OCc2ccccc2)c2nc[nH]c2n1	> 30%
COc1ccc(OC)c(Nc2nc(N)nc3[nH]cnc23)c1	> 50%
O=C(Nc1ccc(N2CCOCC2)cc1)c1n[nH]c2ccccc12	> 30%
Nc1nc(OCC2CCCCC2)c2nc[nH]c2n1	> 50%
Cc1c(C)n(CC(C)C)c2ncnc(N)c12	> 30%
c1nc(N2CCCCC2)c2nc[nH]c2n1	> 50%
CSc1nc(N)nc2[nH]cnc12	> 50%
CNc1nc(N)c(C(=O)c2ccc(F)cc2)s1	> 30%
